Data from article PMC5491903, “The Selective Phosphoinoside-3-Kinase p110δ Inhibitor IPI-3063 Potently Suppresses B Cell Survival, Proliferation, and Differentiation” (Frontiers in Immunology, 2017).

Assays:
Type in all cases: cell-based
[1] = tested on: phosphorylation of ERK1/2 on Thr202/Tyr204 in mouse primary B cells; experiment: p-ERK1/2 western blot in αIgM + IL-4 stimulated mouse B cells
Experimental: IPI-3063 is a p110δ selective compound with an IC50 = 0.1 nM in p110δ-specific cell-based assays and cellular IC50 values for the other class I PI3K isoforms are at least 1,000-fold higher (Table 2) ([11]). […] To test the effects of p110γ inhibition, we used AS-252424 compound with a biochemical IC50 = 30 nM for p110γ ([17]). We assessed the effects of both IPI-3063 and IPI-443 on PI3K activity in mouse primary B cells stimulated with αIgM + IL-4, by evaluating phosphorylation of AKT at the serine 473 residue (Figures 1A,C) as well as the phosphorylation of ERK1/2 on Thr202/Tyr204 residues (Figures 1B,C). Cells were treated with a pan-PI3K inhibitor GDC-0941 or with various concentrations of IPI-3063 or IPI-443, or DMSO (0.1%) as the diluent control. Separate cultures were treated with the p110γ inhibitor AS-252424 or its diluent control (0.1% EtOH). MK-2206, an AKT inhibitor, which also reduces AKT S473 phosphorylation, was also used as a control to show ERK1/2 phosphorylation is independent of AKT activity. […]
Analysis was performed on western blots using ImageJ to measure mean fluorescence intensities of each band. Phospho-AKT S473 and phospho-ERK1/2 signal was normalized with actin measurements and fold change was calculated using the stimulated/no drug control.

mouse primary B cells = experiment: mouse B cell antibody class switching to IgG1; conditions: αCD40 + IL-4, 96 h
Source text: Studies with p110δ inhibitors have shown that low PI3K signaling in B cells promotes antibody class switch recombination (CSR) and decreases differentiation into plasmablasts that secrete low-affinity IgM ([18], [19]). Activation of mouse primary B cells with αCD40 + IL-4 or LPS + IL-4 both induce IgG1 class switching while treatment with LPS alone induces the plasmablast differentiation fate (Figure 5A). In B cells stimulated with αCD40 + IL-4, IPI-3063 increased the percentage of B220^+ cells switching to IgG1 starting at 1 nM and approached the effect of GDC-0941 (Figure 5B).
Figure 5 IPI-3063 potently […] mouse B cell antibody switching and inhibits plasmablast differentiation. Purified B cells were pretreated with inhibitors, then stimulated with αCD40 + IL-4 (B) or LPS + IL-4 (C) for 96 h to induce switching to IgG1 or LPS (D) for 72 h to induce plasmablast differentiation. Class switching to IgG1 was measured by the 7AAD^−CFSE^loB220^+IgG1^+ cells [(A), upper panels]. Plasmablast percentages were calculated by % 7AAD^−CFSE^loCD138^+B220^lo population [(A), lower]. Supernatant was harvested (E) for IgM ELISA. […]
(§1) Mouse splenic B cells were purified by negative selection (eBioscience Magnisort Mouse B cell enrichment kit). B-cell purity was >95% as measured by FACS analysis (FACSCalibur and CellQuest software; BD Biosciences) using anti-B220 antibody (BioLegend). […]

[2] = tested on: LPS-stimulated mouse B cells; experiment: mouse plasmablast differentiation (CD138+B220lo); conditions: 72 h
Experimental: Figure 5 IPI-3063 potently […] mouse B cell antibody switching and inhibits plasmablast differentiation. Purified B cells were pretreated with inhibitors, then stimulated with αCD40 + IL-4 (B) or LPS + IL-4 (C) for 96 h to induce switching to IgG1 or LPS (D) for 72 h to induce plasmablast differentiation. Class switching to IgG1 was measured by the 7AAD^−CFSE^loB220^+IgG1^+ cells [(A), upper panels]. Plasmablast percentages were calculated by % 7AAD^−CFSE^loCD138^+B220^lo population [(A), lower]. Supernatant was harvested (E) for IgM ELISA. Concentrations used were 1 nM, 10 nM, 100 nM, 1 µM for IPI-443 and 1, 10, 30, 100 nM for IPI-3063. Low concentrations of IPI-3063 were 0.01 and 0.1 nM (D). AS252424 concentrations were 100 nM, 300 nM, and 1 µM, and GDC-0941 was at 500 nM. Samples were collected by time (*P < 0.05, **P < 0.001, ***P < 0.0001 one-way ANOVA with Newman–Keuls multiple comparison test). […]
We also evaluated plasmablast differentiation and IgM secretion in LPS-stimulated cells (Figure 5D). […]
as §1

| Compound | effect on p-ERK1/2 ([1]; αIgM + IL-4) | effect on IgG1 switching (mouse primary B cells) | effect on plasmablast differentiation [2] | concentration with significant reduction of p-ERK1/2 ([1]; αIgM + IL-4, 1 h stimulation) [nM] | concentration that increases percentage of B220+ cells switching to IgG1 (mouse primary B cells) [nM] | concentration that decreases plasmablast differentiation ([2]; % CD138+B220lo) [nM] |
| --- | --- | --- | --- | --- | --- | --- |
| O=C1NC(=O)/C(=C/c2ccc(-c3ccc(F)cc3O)o2)S1 [AS-252424, reference compound] | no significant effect | no effect | no significant effect |  |  |  |
| CC(C)n1c([C@H](C)Nc2ncnc(N)c2C#N)cc2cccc(-c3ccc(=O)n(C)c3)c2c1=O [IPI-3063] |  |  |  | 10 | ≥ 1 | ≥ 1 |
